17 molecules from patent US20230064983A1 (priority 2020, published 2023) can be followed below.

Test [1] concerns the target Ba/F3-EGFR-D770_N771insSVD cells (Homo sapiens, UniProt P00533, DUP768-770, cells depend on it). Description: Ba/F3 cell survival assay, EGFR D770_N771insSVD. It is filed as cell-based. The conditions noted are these: Cell Titer-Glo, 48 h, without IL-3; Table 4; read-out: BA/F3 (insSVD) IC50. (Cellular ATP, detected with luciferase, serves as a proxy for viable cell number.)

The target of a further test is Ba/F3-EGFR-WT cells (Homo sapiens, UniProt P00533). Description: Ba/F3 cell survival assay, wild type EGFR. The conditions noted are these: Cell Titer-Glo, 48 h, with 10 ng/mL EGF; Table 4; read-out: BA/F3 (wild type) IC50. The format is cell-based.
Chain of Ba/F3-EGFR-WT cells (P00533 whole entry, looked up, stated change not applied): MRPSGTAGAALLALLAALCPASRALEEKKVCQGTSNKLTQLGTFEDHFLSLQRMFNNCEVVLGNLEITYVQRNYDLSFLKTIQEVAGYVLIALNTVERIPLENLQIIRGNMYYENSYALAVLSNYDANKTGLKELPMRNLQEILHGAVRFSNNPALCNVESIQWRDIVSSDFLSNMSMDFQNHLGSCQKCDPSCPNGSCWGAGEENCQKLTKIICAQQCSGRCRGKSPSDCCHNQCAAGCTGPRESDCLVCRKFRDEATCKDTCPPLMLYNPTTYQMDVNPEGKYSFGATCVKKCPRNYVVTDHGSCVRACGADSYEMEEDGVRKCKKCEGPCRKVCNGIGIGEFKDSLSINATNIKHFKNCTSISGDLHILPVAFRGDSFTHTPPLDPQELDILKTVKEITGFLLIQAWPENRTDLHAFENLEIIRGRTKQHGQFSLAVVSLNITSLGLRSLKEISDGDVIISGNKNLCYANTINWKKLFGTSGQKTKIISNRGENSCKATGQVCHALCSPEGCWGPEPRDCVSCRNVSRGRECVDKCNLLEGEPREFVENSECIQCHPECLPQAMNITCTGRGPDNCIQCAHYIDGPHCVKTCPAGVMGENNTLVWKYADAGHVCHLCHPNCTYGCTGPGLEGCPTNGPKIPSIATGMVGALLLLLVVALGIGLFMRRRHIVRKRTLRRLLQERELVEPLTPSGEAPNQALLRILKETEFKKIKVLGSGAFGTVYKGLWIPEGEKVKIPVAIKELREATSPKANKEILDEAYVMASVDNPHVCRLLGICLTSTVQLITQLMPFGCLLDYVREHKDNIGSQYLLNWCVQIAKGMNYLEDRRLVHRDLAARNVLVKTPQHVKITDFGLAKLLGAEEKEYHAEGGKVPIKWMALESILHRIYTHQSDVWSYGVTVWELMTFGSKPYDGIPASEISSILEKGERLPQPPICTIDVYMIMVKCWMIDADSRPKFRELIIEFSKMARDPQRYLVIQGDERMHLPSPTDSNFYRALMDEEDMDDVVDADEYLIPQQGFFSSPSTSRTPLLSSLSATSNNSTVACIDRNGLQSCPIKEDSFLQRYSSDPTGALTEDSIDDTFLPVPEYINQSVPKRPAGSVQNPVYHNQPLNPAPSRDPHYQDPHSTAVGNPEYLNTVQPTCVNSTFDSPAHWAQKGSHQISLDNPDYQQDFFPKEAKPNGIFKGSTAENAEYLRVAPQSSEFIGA
The target of test [2] is T1, EGFR with insertion SVD between D770 and N771 (mutEGFR D770_N771insSVD) (Homo sapiens, UniProt P00533, DUP768-770).
T1 construct: amino acids R669 to A1210; made in house; host or cells: Sf9 insect cells (baculovirus)
T1 sequence (P00533 other isoform, or with tags, fused parts or gaps DUP768-770): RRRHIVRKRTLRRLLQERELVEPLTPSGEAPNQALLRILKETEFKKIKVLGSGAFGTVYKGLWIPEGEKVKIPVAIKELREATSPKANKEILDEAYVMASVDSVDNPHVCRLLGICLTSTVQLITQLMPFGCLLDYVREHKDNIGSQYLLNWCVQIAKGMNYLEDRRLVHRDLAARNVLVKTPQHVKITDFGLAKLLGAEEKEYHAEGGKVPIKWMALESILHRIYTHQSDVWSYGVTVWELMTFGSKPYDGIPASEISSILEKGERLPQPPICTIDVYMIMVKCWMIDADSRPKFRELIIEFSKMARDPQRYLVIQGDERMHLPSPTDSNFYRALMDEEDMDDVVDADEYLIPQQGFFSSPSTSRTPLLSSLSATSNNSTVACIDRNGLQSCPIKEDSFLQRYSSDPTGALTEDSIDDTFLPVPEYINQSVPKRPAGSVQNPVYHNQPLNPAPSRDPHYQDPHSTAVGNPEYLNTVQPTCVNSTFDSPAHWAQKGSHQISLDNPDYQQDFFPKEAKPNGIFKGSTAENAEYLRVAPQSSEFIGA
Description: Exon20-Mutant-EGFR(D770_N771insSVD) kinase assay (TR-FRET). To be noted: 2 mM ATP, Table 2. The format is biochemical. Background: Time-resolved FRET reads energy transfer from a long-lived donor to a nearby acceptor.

The target in a further test is T2, Bub1 (Homo sapiens, UniProt O43683).
T2 construct: catalytic domain of human Bub1 (amino acids 704-1085); His6 (N); made in house; host or cells: insect cells (Hi5)
T2 sequence (O43683 704-1085): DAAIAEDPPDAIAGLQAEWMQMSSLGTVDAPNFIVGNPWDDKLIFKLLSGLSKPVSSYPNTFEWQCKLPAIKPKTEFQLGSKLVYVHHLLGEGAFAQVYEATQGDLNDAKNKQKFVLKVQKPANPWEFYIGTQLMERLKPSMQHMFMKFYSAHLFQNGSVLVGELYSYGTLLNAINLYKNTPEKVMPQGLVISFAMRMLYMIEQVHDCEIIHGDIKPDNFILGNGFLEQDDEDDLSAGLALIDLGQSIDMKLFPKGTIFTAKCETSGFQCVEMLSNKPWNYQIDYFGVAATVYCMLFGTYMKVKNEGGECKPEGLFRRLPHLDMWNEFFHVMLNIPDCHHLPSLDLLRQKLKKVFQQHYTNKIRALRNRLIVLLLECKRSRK
Description: Bub1 high ATP kinase assay (TR-FRET). It is filed as biochemical. To be noted: Bub1 high ATP (2 mM) IC50, TR-FRET, 2 mM ATP; Table 3. An outline of the steps:
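Enzyme was His6-tagged human Bub1 catalytic domain (aa 704-1085) from Hi5 insect cells, typically about 200 ng/ml, with a biotinylated peptide substrate at high ATP. Reaction ran 60 min at 22 °C, then was stopped with EDTA. Phosphopeptide was detected by TR-FRET (anti-phosphoserine antibody, Eu-labelled anti-mouse IgG, streptavidin-XL665), read as the 665/620 nm emission ratio.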

The structures appear in SMILES notation. Values joined by “and” are separate entries in the source; they are usually repeats but may differ in a detail not shown here. Identical values can stand only once.

Chain of Ba/F3-EGFR-D770_N771insSVD cells (P00533 with tags, fused parts or gaps DUP768-770): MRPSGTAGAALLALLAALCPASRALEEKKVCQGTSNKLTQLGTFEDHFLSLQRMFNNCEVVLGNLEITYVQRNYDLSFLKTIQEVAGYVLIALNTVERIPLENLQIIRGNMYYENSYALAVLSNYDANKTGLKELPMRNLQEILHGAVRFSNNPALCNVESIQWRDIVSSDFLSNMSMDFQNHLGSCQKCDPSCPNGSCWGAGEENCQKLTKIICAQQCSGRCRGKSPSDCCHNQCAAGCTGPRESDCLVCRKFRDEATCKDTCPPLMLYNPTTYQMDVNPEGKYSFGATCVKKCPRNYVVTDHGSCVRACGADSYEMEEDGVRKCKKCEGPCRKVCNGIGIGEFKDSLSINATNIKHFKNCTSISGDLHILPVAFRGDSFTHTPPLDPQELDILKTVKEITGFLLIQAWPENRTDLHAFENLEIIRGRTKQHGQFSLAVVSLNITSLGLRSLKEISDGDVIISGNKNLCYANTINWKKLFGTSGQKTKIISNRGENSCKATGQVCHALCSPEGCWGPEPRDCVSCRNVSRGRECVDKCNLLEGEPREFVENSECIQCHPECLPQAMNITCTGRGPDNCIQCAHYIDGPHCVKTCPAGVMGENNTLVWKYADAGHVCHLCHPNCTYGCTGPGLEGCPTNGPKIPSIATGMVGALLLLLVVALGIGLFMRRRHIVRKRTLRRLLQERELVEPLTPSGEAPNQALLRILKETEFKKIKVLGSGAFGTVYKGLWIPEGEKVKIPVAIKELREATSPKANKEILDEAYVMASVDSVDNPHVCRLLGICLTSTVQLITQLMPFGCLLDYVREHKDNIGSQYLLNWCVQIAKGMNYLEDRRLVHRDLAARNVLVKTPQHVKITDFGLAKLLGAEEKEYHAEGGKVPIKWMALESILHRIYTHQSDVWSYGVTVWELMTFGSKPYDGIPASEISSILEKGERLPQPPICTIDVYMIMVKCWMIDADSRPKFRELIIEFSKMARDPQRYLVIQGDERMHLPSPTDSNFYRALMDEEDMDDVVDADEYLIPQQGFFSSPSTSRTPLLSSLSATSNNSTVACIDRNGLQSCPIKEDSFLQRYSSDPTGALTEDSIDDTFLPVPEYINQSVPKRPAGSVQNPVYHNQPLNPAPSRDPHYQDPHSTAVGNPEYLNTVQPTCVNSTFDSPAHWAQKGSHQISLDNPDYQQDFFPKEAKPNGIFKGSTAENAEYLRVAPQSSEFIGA

With `COc1c(Cl)cccc1Nc1c(-c2ccncc2OC[C@@H]2COCCN2C)[nH]c2c1C(=O)NCC2CCO` (single isomer, unassigned) [Example 116], the results for the GI50 (in test [1]; on Ba/F3-EGFR-WT cells) were 169 nM and 2030 nM, respectively. Also, in test [2], the “mutEGFR (D770_N771insSVD) kinase assay IC50” value (shortened to “mutEGFR”) is 0.276 nM. Moreover, inhibition against Bub1 was half-maximal at 13700 nM (IC50).

Take `Cc1c(Cl)cccc1Nc1c(-c2ccncc2OCC2CCCCO2)[nH]c2c1C(=O)NCC2C` (single isomer, unassigned) [Example 118, 3-(3-chloro-2-methyl-anilino)-7-methyl-2-[3-(tetrahydropyran-2-ylmethoxy)-4-pyridyl]-1,5,6,7-tetrahydropyrrolo[3,2-c]pyridin-4-one]: the GI50 in test [1] amounted to 22.3 nM; on Ba/F3-EGFR-WT cells, 938 nM. The “mutEGFR” value in test [2] was found to be 0.431 nM. For the same molecule, the concentration for half-maximal inhibition (IC50) – broadly, the concentration that gives 50% inhibition – against Bub1 was > 20000 nM and 19400 nM.

With `Cc1c(Cl)cccc1Nc1c(-c2ccncc2OCC2CCCCO2)[nH]c2c1C(=O)NCC2C` (single isomer, unassigned) [Example 119, 3-(3-chloro-2-methyl-anilino)-7-methyl-2-[3-(tetrahydropyran-2-ylmethoxy)-4-pyridyl]-1,5,6,7-tetrahydropyrrolo[3,2-c]pyridin-4-one], the GI50 in test [1] is 54.7 nM; at Ba/F3-EGFR-WT cells, 1290 nM. In addition, in test [2], the “mutEGFR” value worked out at 0.324 nM. The molecule also returned an IC50 at Bub1 of 1520 nM.

As for `COc1c(Cl)cccc1Nc1c(-c2ccncc2OCCC(C)OC)[nH]c2c1C(=O)N[C@H](C)C2` (single isomer, unassigned) [Example 122], the GI50 in test [1] came to 23.8 nM; at Ba/F3-EGFR-WT cells, 506 nM. In addition, the “mutEGFR” value in test [2] turned out to be 0.122 nM. This molecule returned a concentration for half-maximal inhibition (IC50) at Bub1 of 741 nM.

Turning to `COc1c(Cl)cccc1Nc1c(-c2ccncc2OCC2COCCO2)[nH]c2c1C(=O)NC1(CCC1)C2` (single isomer, unassigned) [Example 124, 3-(3-chloro-2-methoxy-anilino)-2-[3-(1,4-dioxan-2-ylmethoxy)-4-pyridyl]spiro[5,7-dihydro-1H-pyrrolo[3,2-c]pyridine-6,1′-cyclobutane]-4-one], the GI50 was 26 nM in test [1] and 513 nM on Ba/F3-EGFR-WT cells. Also, in test [2], the “mutEGFR” value stood at 0.315 nM. Also, 479 nM corresponded to half-maximal inhibition at Bub1 (IC50).

For the molecule `COc1c(Cl)cccc1Nc1c(-c2ccncc2OCC2COCCO2)[nH]c2c1C(=O)NC1(CCC1)C2` (single isomer, unassigned) [Example 125, 3-(3-chloro-2-methoxy-anilino)-2-[3-(1,4-dioxan-2-ylmethoxy)-4-pyridyl]spiro[5,7-dihydro-1H-pyrrolo[3,2-c]pyridine-6,1′-cyclobutane]-4-one], the figures for the GI50 (in test [1]; at Ba/F3-EGFR-WT cells) were 40.4 nM and 948 nM, respectively. Moreover, the “mutEGFR” value in test [2] came out at 0.235 nM. Further, at Bub1, it took 446 nM to reach half-maximal inhibition (IC50).

With `COc1c(Cl)cccc1Nc1c(-c2ccncc2OCC2COC(C)(C)CO2)[nH]c2c1C(=O)NC1(CCC1)C2` (single isomer, unassigned) [Example 130, 3′-(3-chloro-2-methoxyanilino)-2′-{3-[(5,5-dimethyl-1,4-dioxan-2-yl)methoxy]pyridin-4-yl}-1′,7′-dihydrospiro[cyclobutane-1,6′-pyrrolo[3,2-c]pyridin]-4′(5′H)-one], the values for the GI50 (in test [1]; at Ba/F3-EGFR-WT cells) were 8.01 nM and 418 nM, respectively. Besides, in test [2], the “mutEGFR” value was 0.256 nM. For the same molecule, half-maximal inhibition against Bub1 (IC50) was put at 768 nM.

`COc1c(Cl)cccc1Nc1c(-c2ccncc2OCC2COC(C)(C)CO2)[nH]c2c1C(=O)NC1(CCC1)C2` (single isomer, unassigned) [Example 131, 3′-(3-chloro-2-methoxyanilino)-2′-{3-[(5,5-dimethyl-1,4-dioxan-2-yl)methoxy]pyridin-4-yl}-1′,7′-dihydrospiro[cyclobutane-1,6′-pyrrolo[3,2-c]pyridin]-4′(5′H)-one]: the values for the GI50 (in test [1]; on Ba/F3-EGFR-WT cells) were 48.4 nM and 980 nM, respectively. The “mutEGFR” value in test [2] is 0.318 nM. This molecule registered an IC50 against Bub1 of 1670 nM.

Take `COc1c(Cl)cccc1Nc1c(-c2ccncc2OCC2COC(C)(C)CO2)[nH]c2c1C(=O)NC1(CC1)C2` (single isomer, unassigned) [Example 133, 3′-(3-chloro-2-methoxyanilino)-2′-(3-{[5,5-dimethyl-1,4-dioxan-2-yl]methoxy}pyridin-4-yl)-1′,7′-dihydrospiro[cyclopropane-1,6′-pyrrolo[3,2-c]pyridin]-4′(5′H)-one]: the GI50 in test [1] was determined as 22.2 nM; on Ba/F3-EGFR-WT cells, 484 nM. Besides, the “mutEGFR” value in test [2] is 0.341 nM. The IC50 on Bub1 is 1650 nM.

As to `COc1c(Cl)cccc1Nc1c(-c2ccncc2OCC2COC(C)(C)CO2)[nH]c2c1C(=O)NC1(CC1)C2` (single isomer, unassigned) [Example 134, 3′-(3-chloro-2-methoxyanilino)-2′-(3-{[5,5-dimethyl-1,4-dioxan-2-yl]methoxy}pyridin-4-yl)-1′,7′-dihydrospiro[cyclopropane-1,6′-pyrrolo[3,2-c]pyridin]-4′(5′H)-one], the GI50 in test [1] came out at 92.8 nM; on Ba/F3-EGFR-WT cells, 718 nM. Besides, in test [2], the “mutEGFR” value turned out to be 0.179 nM. Also, the midpoint of inhibition against Bub1, the IC50, lay at 1160 nM.

For the molecule `COc1c(Cl)cccc1Nc1c(-c2ccncc2OC[C@@H]2CCCO2)[nH]c2c1C(=O)NC1CCCC21` (stereo in doubt) [Example 55, (5aR*,8aS*)-3-(3-chloro-2-methoxyanilino)-2-(3-{[(2S)-oxolan-2-yl]methoxy}-4-pyridyl)-5,5a,6,7,8,8a-hexahydrocyclopenta[b]pyrrolo[2,3-d]pyridin-4(1H)-one], the GI50 in test [1] turned out to be 75.1 nM; at Ba/F3-EGFR-WT cells, 978 nM. Besides, the “mutEGFR” value in test [2] amounted to 0.239 nM. The half-inhibitory concentration (IC50) against Bub1 was 758 nM.

For `COc1c(Cl)cccc1Nc1c(-c2ccncc2OCC(C)(C)OC)[nH]c2c1C(=O)N[C@H](C)C2` [Example 1, (6R)-3-(3-chloro-2-methoxyanilino)-2-[3-(2-methoxy-2-methylpropoxy)pyridin-4-yl]-6-methyl-1,5,6,7-tetrahydro-4H-pyrrolo[3,2-c]pyridin-4-one], the results for the GI50 (in test [1]; on Ba/F3-EGFR-WT cells) were 17.8 nM and 417 nM, respectively. Further, the “mutEGFR” value in test [2] was 0.135 nM. This molecule registered an IC50 against Bub1 of 1320 nM.

In the case of `COc1c(Cl)cccc1Nc1c(-c2ccncc2OCC(C)(C)OC)[nH]c2c1C(=O)N[C@@H](C)C2` [Example 2, (6S)-3-(3-chloro-2-methoxyanilino)-2-[3-(2-methoxy-2-methylpropoxy)pyridin-4-yl]-6-methyl-1,5,6,7-tetrahydro-4H-pyrrolo[3,2-c]pyridin-4-one], the GI50 was found to be 64.6 nM in test [1] and 575 nM on Ba/F3-EGFR-WT cells. Besides, the “mutEGFR” value in test [2] came to 0.235 nM. The half-maximal inhibitory concentration (IC50) on Bub1 is 393 nM.

Take `COc1c(Cl)cccc1Nc1c(-c2ccncc2OC[C@@H]2CCO2)[nH]c2c1C(=O)N[C@H](C)C2` [Example 6, (6R)-3-(3-chloro-2-methoxyanilino)-6-methyl-2-(3-{[(2S)-oxetan-2-yl]methoxy}pyridin-4-yl)-1,5,6,7-tetrahydro-4H-pyrrolo[3,2-c]pyridin-4-one]: the values for the GI50 (in test [1]; at Ba/F3-EGFR-WT cells) were 86.4 nM and 623 nM, respectively. In test [2], the “mutEGFR” value was determined as 0.217 nM. In addition, half-maximal inhibition at Bub1 (IC50) required 10200 nM.

With `COc1c(Cl)cccc1Nc1c(-c2ccncc2OC[C@@H]2CCO2)[nH]c2c1C(=O)N[C@@H](C)C2` [Example 7, (6S)-3-(3-chloro-2-methoxyanilino)-6-methyl-2-(3-{[(2S)-oxetan-2-yl]methoxy}pyridin-4-yl)-1,5,6,7-tetrahydro-4H-pyrrolo[3,2-c]pyridin-4-one], the figures for the GI50 (in test [1]; on Ba/F3-EGFR-WT cells) were 25.7 nM and 384 nM, respectively. Also, the “mutEGFR” value in test [2] was 0.0854 nM and <0.0725 nM. The molecule also yielded an IC50 at Bub1 of over 20000 nM.

For the molecule `COc1c(Cl)cccc1Nc1c(-c2ccncc2OC[C@@H]2CN(C)CCO2)[nH]c2c1C(=O)N[C@H](C)C2` [Example 11, (6R)-3-(3-chloro-2-methoxyanilino)-6-methyl-2-(3-{[(2S)-4-methylmorpholin-2-yl]methoxy}pyridin-4-yl)-1,5,6,7-tetrahydro-4H-pyrrolo[3,2-c]pyridin-4-one], the GI50 came out at 17.8 nM in test [1] and 264 nM on Ba/F3-EGFR-WT cells. Moreover, in test [2], the “mutEGFR” value was 0.179 nM. The same molecule had an IC50 at Bub1 of over 20000 nM.

Take `COc1c(Cl)cccc1Nc1c(-c2ccncc2OC[C@@H]2CN(CC(F)F)CCO2)[nH]c2c1C(=O)N[C@H](C)C2` [Example 12, (6R)-3-(3-chloro-2-methoxyanilino)-2-(3-{[(2S)-4-(2,2-difluoroethyl)morpholin-2-yl]methoxy}pyridin-4-yl)-6-methyl-1,5,6,7-tetrahydro-4H-pyrrolo[3,2-c]pyridin-4-one]: the GI50 is 48.7 nM in test [1] and 719 nM at Ba/F3-EGFR-WT cells. Further, the “mutEGFR” value in test [2] is 0.172 nM. The molecule also showed a concentration for half-maximal inhibition (IC50) against Bub1 of over 20000 nM.
